Laboratory results reported in US9266876B2 (Actelion Pharmaceuticals Ltd., priority 2012, dated 2016).
Read-outs that look alike come from different tables or passages of the source.

How the values were obtained:
CXCR3 = CXCR3 (Homo sapiens (Human), UniProt P49682); assay: Receptor internalization assay; type: cell-based
Outline: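 In human whole blood, compounds were incubated with CXCL10 (9 nM final) for 30 min at 37 °C to drive receptor internalization, then stained with anti-CXCR3/CD3 antibodies and lysed of red cells. Flow cytometry measured mean surface CXCR3 fluorescence on CD3+ cells, and IC50 came from single-site dose-response fits.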

human CXCR3A = human CXCR3A (Homo sapiens (Human), UniProt P49682); assay: FLIPR assay; type: cell-based; details: CHO-K1 cells expressing the human CXCR3A coupled to Galpha(16); CXCL10 agonist 20 nM; Fluo-4-AM fluorescence; mean values if determined several times
Chain of human CXCR3A (P49682 whole entry): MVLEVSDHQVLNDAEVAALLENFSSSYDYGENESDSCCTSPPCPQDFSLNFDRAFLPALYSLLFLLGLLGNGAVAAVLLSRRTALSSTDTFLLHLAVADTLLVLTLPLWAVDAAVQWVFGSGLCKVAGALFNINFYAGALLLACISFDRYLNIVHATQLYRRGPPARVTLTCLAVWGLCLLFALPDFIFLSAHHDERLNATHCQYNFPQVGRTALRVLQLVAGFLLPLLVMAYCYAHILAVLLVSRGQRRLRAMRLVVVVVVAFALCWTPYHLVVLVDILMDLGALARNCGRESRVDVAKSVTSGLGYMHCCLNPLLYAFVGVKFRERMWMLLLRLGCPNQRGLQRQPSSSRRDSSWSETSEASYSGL
Outline: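 CHO-K1 cells expressing CXCR3A coupled to Gα16 were loaded with Fluo-4-AM for 1 h in Hepes-buffered HBSS, pH 7.4, with 5 mM probenecid. Compound dilutions were added on the FLIPR, followed by CXCL10 (added as a 20 nM solution). Baseline-subtracted peak fluorescence was fitted to a single-site curve for IC50.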

[1] = human whole blood, final CXCL10 concentration 9 nM, 30 min 37° C., CXCR3 cell surface expression on CD3 positive cells, flow cytometer, read-out: Internalization IC50

Chain of CXCR3 (P49682 whole entry): as above

SMILES | IC50 (CXCR3; [1]) | IC50 (human CXCR3A) | IC50 (CXCR3)
C[C@@H]1CN(c2scnc2-c2nc3ccccc3[nH]2)CCN1C(=O)Cc1cccc2ccccc12 [Example 118, 1-{(R)-4-[4-(1H-Benzoimidazol-2-yl)-thiazol-5-yl]-2-methyl-piperazin-1-yl}-2-naphthalen-1-yl-ethanone] | 3.78 µM | 0.003 µM | 
C[C@@H]1CN(c2scnc2-c2nc3ccccc3[nH]2)CCN1C(=O)Cc1cccc2cccnc12 [Example 119, 1-{(R)-4-[4-(1H-Benzoimidazol-2-yl)-thiazol-5-yl]-2-methyl-piperazin-1-yl}-2-quinolin-8-yl-ethanone] | 2.45 µM | 0.002 µM | 
C[C@@H]1CN(c2scnc2-c2nc3ccccc3[nH]2)CCN1C(=O)Cc1noc2ccccc12 [Example 130, 2-Benzo[d]isoxazol-3-yl-1-{(R)-4-[4-(1H-benzoimidazol-2-yl)-thiazol-5-yl]-2-methyl-piperazin-1-yl}-ethanone] | 2.67 µM | 0.003 µM | 
C[C@@H]1CN(c2scnc2-c2nc3ccccc3[nH]2)CCN1C(=O)Cc1n[nH]c2ccccc12 [Example 132, 1-{(R)-4-[4-(1H-Benzoimidazol-2-yl)-thiazol-5-yl]-2-methyl-piperazin-1-yl}-2-(1H-indazol-3-yl)-ethanone] | 6.38 µM | 0.003 µM | 
C[C@@H]1CN(c2sc(C(F)(F)F)nc2-c2nc3cc(Cl)ccc3[nH]2)CCN1C(=O)Cn1cnc2cccnc21 [Example 147, 1-{(R)-4-[4-(5-Chloro-1H-benzoimidazol-2-yl)-2-trifluoromethyl-thiazol-5-yl]-2-methyl-piperazin-1-yl}-2-imidazo[4,5-b]pyridin-3-yl-ethanone] |  | 0.001 µM | 0.039 µM

The next lines start with results.

IC50 (CXCR3; [1]) | IC50 (human CXCR3A) | SMILES | IC50 (CXCR3)
1.14 µM | 0.005 µM | C[C@@H]1CN(c2scnc2-c2nc3ccccc3[nH]2)CCN1C(=O)Cn1cnc2ccncc21 [Example 137, 1-{(R)-4-[4-(1H-Benzoimidazol-2-yl)-thiazol-5-yl]-2-methyl-piperazin-1-yl}-2-imidazo[4,5-c]pyridin-3-yl-ethanone] | 
1.09 µM | 0.004 µM | C[C@@H]1CN(c2scnc2-c2nc3ccccc3[nH]2)CCN1C(=O)Cn1cnc2cnccc21 [Example 138, 1-{(R)-4-[4-(1H-Benzoimidazol-2-yl)-thiazol-5-yl]-2-methyl-piperazin-1-yl}-2-imidazo[4,5-c]pyridin-1-yl-ethanone] | 
2.93 µM | 0.002 µM | C[C@@H]1CN(c2scnc2-c2nc3ccccc3[nH]2)CCN1C(=O)CN1CCc2cccnc21 [Example 139, 1-{(R)-4-[4-(1H-Benzoimidazol-2-yl)-thiazol-5-yl]-2-methyl-piperazin-1-yl}-2-(2,3-dihydro-pyrrolo[2,3-b]pyridin-1-yl)-ethanone] | 
0.363 µM | 0.0002 µM | C[C@@H]1CN(c2scnc2-c2nc3ccccc3[nH]2)CCN1C(=O)Cn1ccc2ccncc21 [Example 141, 1-{(R)-4-[4-(1H-Benzoimidazol-2-yl)-thiazol-5-yl]-2-methyl-piperazin-1-yl}-2-pyrrolo[2,3-c]pyridin-1-yl-ethanone] | 
0.352 µM | 0.002 µM | C[C@@H]1CN(c2scnc2-c2nc3ccccc3[nH]2)CCN1C(=O)Cn1ccc2ccnc(Cl)c21 [Example 142, 1-{(R)-4-[4-(1H-Benzoimidazol-2-yl)-thiazol-5-yl]-2-methyl-piperazin-1-yl}-2-(7-chloro-pyrrolo[2,3-c]pyridin-1-yl)-ethanone] | 
0.723 µM | 0.001 µM | C[C@@H]1CN(c2scnc2-c2nc3ccccc3[nH]2)CCN1C(=O)Cn1cc(Cl)c2cccnc21 [Example 143, 1-{(R)-4-[4-(1H-Benzoimidazol-2-yl)-thiazol-5-yl]-2-methyl-piperazin-1-yl}-2-(3-chloro-pyrrolo[2,3-b]pyridin-1-yl)-ethanone] | 
0.933 µM | 0.002 µM | Cc1nc(-c2nc3ccccc3[nH]2)c(N2CCN(C(=O)Cn3cnc4cccnc43)[C@H](C)C2)s1 [Example 144, 1-{(R)-4-[4-(1H-Benzoimidazol-2-yl)-2-methyl-thiazol-5-yl]-2-methyl-piperazin-1-yl}-2-imidazo[4,5-b]pyridin-3-yl-ethanone] | 
